The values that follow come from a melting point compilation (Tetko et al.; mined from patent text by program, amines drawn as free bases though some values may be those of a salt).

As a reminder, the melting point is the temperature, or range, at which the solid turns liquid. `CCOC(=O)C=CNc1oc2ccc(CC)cc2c(=O)c1C=O` registered a melting point of 201 to 203 °C.

For the compound `CCC(O)(c1ccc(OCCCN2CCCCC2)cc1)c1ccccc1OC` (stereo not given), the melting point was 110 to 111 °C.

For `NC(=O)n1nc(-c2ccc(F)cc2)cc1N`, the melting point worked out at 140 °C.

Take `CCCCC1OC(=O)c2cc(NC(C)=O)c([N+](=O)[O-])cc21` (stereo not given): the melting point lay in the range of 167 to 169 °C.

The compound `CCOC(=O)c1cnoc1-c1ccc(C)cc1` showed a melting point of 42 to 44 °C.

In turn, `CC(C)c1nc(CCOC2=CCC(C(C)(C)C)CC2)n(C)c1Sc1cc(Cl)cc(Cl)c1` (stereo not given) showed a melting point of 99.5 to 100 °C.

As for `COc1nc2cc(C(c3ccccc3)n3ccnc3)ccc2[nH]1` (stereo not given), the melting point stood at 110 °C.

`CCOC(=O)c1ncc2[nH]c3ccc(I)cc3c2c1C` displayed a melting point of 250 to 255 °C.

The compound `CC(C)=NOCc1nc2c(N)nc3cccnc3c2n1CC(C)C` showed a melting point of 173 to 175 °C.

The compound `CCOC(=O)c1nc2scc(CN(C)Cc3ccccc3)c2c(=O)[nH]1` registered a melting point of 129 °C.

On to `CCOC(=O)CN(C)c1ccc(N=C=S)cc1`, for which the melting point was 90 to 91 °C.

Take `CN(Cc1ncc(C(F)(F)F)cc1Cl)C(=O)c1c(Cl)cccc1Cl`: the melting point is 83 to 84 °C.

The compound `Cc1nc(CC2OC(CO)C(O)C2O)n2nc(Cl)ccc12` (stereo not given) returned a melting point of 171 to 174 °C.

`Cc1nc2cc(C)c(C)cc2c(=O)[nH]1` came in with a melting point of 310 to 312 °C.

For `CC(=O)SCCC(=O)N1N=C(c2ccc(S(N)(=O)=O)cc2)CC1C(=O)O` (stereo not given), the melting point lay in the range of 183 to 185 °C.

`COc1cccc(NC(=O)C(C#N)C(=O)c2nn(-c3ccccc3)c3c2Cc2ccccc2-3)c1` (stereo not given) came in with a melting point of 280 to 284 °C.

`NC(=O)C1(c2c(F)cccc2Cl)CC1` yielded a melting point of 98 to 102 °C.

As to `CCOC(=O)c1cncn1C1CC(C)(C)Oc2ccccc21` (stereo not given), the melting point came to 80.9 °C.

As for `CCOC(=S)SC(=CC(=O)c1cc(Cl)c(C)c(Cl)c1)C(=O)O`, the melting point was 126 to 128 °C.

On to `CC(Oc1cc(Oc2ccc(C(F)(F)F)cc2Cl)ccc1[N+](=O)[O-])C(=O)OCn1cccn1` (stereo not given), for which the melting point turned out to be 75 °C.

With `CNC(=O)c1sc(N2CCN(Cc3ccc(F)cc3)C2=O)nc1C`, the melting point fell in the range of 225 to 227 °C.

As to `Cn1c(C(F)(F)F)cc(=O)n(-c2ccc(Cl)c3nc(C(C)(C)C)oc23)c1=O`, the melting point was in the range of 146 to 148 °C.

`COc1ccnc(CCc2nc3cc(-c4ccc(S(=O)(=O)N5CCCN(C)CC5)cc4)cnc3[nH]2)c1` came in with a melting point of 160 to 162 °C.

The compound `CCN1CCN(Cc2ccc(COc3cccc4c3CN(C3CCC(=O)NC3=O)C4=O)cc2)CC1=O` (stereo not given) registered a melting point of 163 to 165 °C.

The compound `CN(C)CC#Cc1cc(CC2CCOCC2)cc2c(=O)c(C(=O)NCc3ccc(Cl)cc3)cn(C)c12` displayed a melting point of 157 to 159 °C.

In the case of `CCn1c2ccccc2c2oc(C#N)cc(=O)c21`, the melting point was 184 to 185 °C.

`CN[C@@H]1COc2cc(Cl)cc(-c3ccc(Cl)cc3C)c2O1` registered a melting point of 110 °C.

In turn, `Nc1nc2c(s1)CCN(CC1=Cc3ccccc3C1)CC2` yielded a melting point of 134 to 138 °C.

With `CCCCn1cc(C2CCN(CCOc3ccccc3C(=O)O)CC2)c2ccncc21`, the melting point lay in the range of 158 to 159 °C.

Take `CCOCC(O)COc1ccc(NC(=O)CCSC)cc1` (stereo not given): the melting point was in the range of 79 to 81 °C.

On to `Cc1cc2ncc(-c3cccc(-c4ccccc4C#N)c3)n2cn1`, for which the melting point is 119 °C.

Regarding `O=C(c1ccccc1)c1cnn2c(-c3cccc(N4CCCC4=O)c3)ccnc12`, the melting point lay in the range of 173 to 174 °C.

The compound `O=C1CC2CSc3sccc3C2=NN1c1ccc(Cl)cc1` (stereo not given) displayed a melting point of 134 to 135 °C.

As to `CCCCC(CC)n1nnc2c(Nc3ccc(C(C)C)cc3Br)nc(C)cc21` (stereo not given), the melting point fell in the range of 73 to 74 °C.

Consider `CCCc1c2nc(C(=O)Nc3ccccc3)cc(Cl)c2cc2c(=O)cc(C(=O)Nc3ccccc3)oc12`, for which the melting point is above 315 °C.
